From doi:10.1101/2020.12.17.423306v1 (biorxiv, 2020)

Key:
[1] = target: T1, HIS1 (Oryza sativa, UniProt A0A7G1K8F5); experiment: HPLC of BBC-OH hydroxylation; assay type: biochemical
T1 sequence (A0A7G1K8F5 1-351): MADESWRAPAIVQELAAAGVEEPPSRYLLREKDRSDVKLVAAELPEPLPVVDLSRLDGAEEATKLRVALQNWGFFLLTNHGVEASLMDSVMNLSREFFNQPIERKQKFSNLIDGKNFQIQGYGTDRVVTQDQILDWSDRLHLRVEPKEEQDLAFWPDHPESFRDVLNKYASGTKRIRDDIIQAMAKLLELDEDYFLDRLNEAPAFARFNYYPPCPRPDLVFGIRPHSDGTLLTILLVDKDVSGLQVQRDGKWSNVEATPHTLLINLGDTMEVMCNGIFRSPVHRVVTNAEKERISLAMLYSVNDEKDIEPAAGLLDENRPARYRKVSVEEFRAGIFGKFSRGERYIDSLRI

[2] = target: T2, OsHSL1 (Oryza sativa, UniProt A0A7G1K9G4); experiment: HPLC of TFT conversion; assay type: biochemical
T2 sequence (A0A7G1K9G4 1-350): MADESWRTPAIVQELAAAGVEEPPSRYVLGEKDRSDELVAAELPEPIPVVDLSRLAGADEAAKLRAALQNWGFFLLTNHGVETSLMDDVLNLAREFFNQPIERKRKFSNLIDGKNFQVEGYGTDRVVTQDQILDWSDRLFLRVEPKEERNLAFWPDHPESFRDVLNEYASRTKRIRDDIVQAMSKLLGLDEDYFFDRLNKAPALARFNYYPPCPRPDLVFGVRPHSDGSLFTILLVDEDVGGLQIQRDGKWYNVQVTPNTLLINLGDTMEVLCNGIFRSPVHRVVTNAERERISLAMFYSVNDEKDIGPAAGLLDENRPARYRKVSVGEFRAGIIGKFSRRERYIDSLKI

IC50 [1]	IC50 [2]	Structure (SMILES)
50 µM	–	CCC(=O)C1C(=O)CC(C(=O)O)CC1=O (centres unmarked) [prohexadione, 3,5-dioxo-4-propionylcyclohexanecarboxylic acid]
–	~125 µM	CCOC(=O)C1CC(=O)C(=C(O)C2CC2)C(=O)C1 (centres unmarked) [TE, ethyl-(3-oxido-4-cyclopropionyl-5-oxo) oxo-3-cyclohexenecarboxylate]
